The text below walks through data of PubChem BioAssay (NCI).

Holding throughout (experiment): NCI anticancer screen, dose series, 48 h
Test [1] relates to 786-0 renal.
Test [2] deals with A498 renal.
Test [3] relates to HCT-15 colon.
Test [4] concerns IGROV1 ovarian.
Test [5] concerns MDA-MB-231 breast.
For test [6], the system named is OVCAR-4 ovarian.
For test [7], the system named is OVCAR-8 ovarian.
Test [8] has as its system RXF 393 renal.
The test system of test [9] is SK-MEL-28 melanoma.
Test [10] concerns TK-10 renal.

Where “and” joins values, the source holds several entries; their conditions need not be identical. Identical values can stand only once.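 Values below derive from 48-hour exposures of cells grown in 96-well plates, with endpoints linearly interpolated between the two concentrations bracketing the appropriate inhibition level. Abbreviation: GI50, concentration required for 50% inhibition of growth. At the TGI there is no net growth.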

On to `COc1cc(-c2nn(-c3cccc(NC(=O)Nc4cc(C(F)(F)F)cc(C(F)(F)F)c4)c3)cc2-c2ccncc2)ccc1Cl`, for which the GI50 in test [1] is 0.892 µM; in [2], 0.587 µM; in test [3] it was 0.756 µM; in [4], 0.592 µM; in test [5], 0.675 µM; in test [6], 0.698 µM. The GI50 in test [7] is 0.524 µM; in test [8], 0.841 µM; in test [9], 0.758 µM; in test [10], 0.719 µM. Besides, the TGI came to 1.82 µM in test [1]; 2.13 µM in test [2]; 2.97 µM in test [3]; 2.34 µM in [4]; 1.43 µM in test [5]; 12.9 µM in [6]. The TGI in [7] stood at 3.98 µM; in test [8] it was 2.15 µM; in [9] it was 1.94 µM; in [10] it was 2.46 µM.

On to `CC(C)(C)c1nn(-c2ccccc2)c2c1C(=O)CSC(c1ccccc1Cl)N2` (stereo unspecified), for which the GI50 is 3.32 µM in test [1]; 0.353 µM in test [2]; 2 µM in [3]; 3.52 µM in test [4]; 3.57 µM in test [5]; 8.48 µM in test [6]. Also, the GI50 in test [7] is 6.65 µM; in [8], 0.545 µM; in test [9], 5.18 µM; in test [10], 11.1 µM. Further, the TGI in test [1] is 15.1 µM; in test [2] it was 3.78 µM; in [3], 16 µM; in test [4], 43 µM; in test [5], 16 µM; in test [6], 21.9 µM. Moreover, the TGI in [7] was 30.2 µM; in test [8] it was 3.11 µM; in test [9], 22.5 µM; in test [10] it was 29.4 µM.

For the molecule `Cn1c(/C=C(\C#N)c2ccccc2)nc2c(N3CCOCC3)nc(Cl)nc21`, the GI50 in test [1] is 1.56 µM; in test [2], 1.51 µM; in test [3], 0.233 µM; in test [4], 0.871 µM; in test [5], 1.31 µM; in [6], 1.13 µM. Further, the GI50 is 1.04 µM in test [7], 0.89 µM in test [8], 1.57 µM in test [9] and 1.82 µM in test [10]. Also, the TGI in test [1] turned out to be 3.05 µM; in test [2], 2.87 µM; in test [3], 0.641 µM; in test [4] it was 2.17 µM; in [5], 2.92 µM; in test [6] it was 2.5 µM. In addition, the TGI in test [7] was 3.39 µM; in [8], 2.14 µM; in test [9], 2.96 µM; in [10] it was 3.24 µM.

For the molecule `CC1=C2C[C@H]3[C@@H](CC[C@@H]4CC(NS(C)(=O)=O)CC[C@@]43C)[C@@H]2CC[C@@]2(C1)O[C@@H]1C[C@H](C)CN[C@H]1[C@H]2C` (stereo partly specified), the GI50 in test [1] is 8.94 µM; in test [2], 13.2 µM; in [3], 5.9 µM; in test [4], 11.9 µM; in test [5] it was 5.68 µM; in test [6], 1.66 µM. Besides, the GI50 was 12 µM in test [7], 3.65 µM in test [8], 4.81 µM in [9] and 11.3 µM in [10]. The TGI in test [1] was found to be 24.2 µM; in [2], 26.8 µM; in test [3], 21.4 µM; in [4], 26 µM; in [5], 18.8 µM; in test [6], 4.79 µM. Moreover, the TGI is 25.7 µM in [7], 15.6 µM in test [8], 11.3 µM in test [9] and 24.4 µM in test [10].

As to `CC(C)[C@H](CO)Nc1nc(Nc2ccc(C(=O)NCCNS(=O)(=O)c3cccc4c(N(C)C)cccc34)c(Cl)c2)c2ncn(C(C)C)c2n1`, the GI50 in test [1] was 3.15 µM; in test [2] it was 1.83 µM; in test [3], 4.29 µM; in test [4], 2.62 µM; in test [5], 1.58 µM; in [6], 7.71 µM. The GI50 in test [7] is 3.18 µM; in test [8] it was 0.381 µM; in [9] it was 2.9 µM; in test [10], 7.62 µM. The TGI in [1] was over 100 µM; in test [2] it was 6.1 µM; in [3] it was over 100 µM; in test [4], over 25.1 µM; in test [5], 9.16 µM; in test [6], over 100 µM. Besides, the TGI in [7] is over 100 µM; in test [8] it was 1.78 µM; in test [9], over 100 µM; in test [10], over 100 µM.

For the molecule `CCOC(=O)c1[nH]c(Br)c(-c2ccc(Br)cc2)c1Br`, the GI50 is 0.535 µM in test [1]; 0.288 µM in test [2]; 0.25 µM in test [3]; 0.851 µM in test [4]; 0.782 µM in test [5]; 2.34 µM in test [10]. Besides, the TGI in test [1] is 1.92 µM and 2.72 µM; in test [2], 5.28 µM and 1.22 µM; in test [3], over 100 µM; in test [4] it was 6.34 µM; in [5], 7.07 µM; in [6] it was 3.6 µM and 3.5 µM. The TGI is 2.65 µM and 2.42 µM in test [7]; 8.14 µM in test [8]; 22.1 µM in test [9]; 9.99 µM and 11.3 µM in test [10].

In the case of `Nc1ncnc2c1nc(Cl)n2C1OC2COP(=O)(O)OC2C1O` (stereo unspecified), the TGI in [1] was over 300 µM; in test [2] it was over 300 µM; in test [3], over 300 µM; in [4], over 300 µM; in test [5] it was over 300 µM; in [6] it was 204 µM and > 100 µM. In addition, the TGI in test [7] was over 300 µM; in test [8], over 300 µM; in [9], over 300 µM; in test [10] it was over 222 µM.

With `CC(C)(O)CS(=O)(=O)Nc1ccc2c(c1)CCN(C(=O)COc1cccnc1)C2`, the GI50 in test [1] was over 100 µM; in test [2], over 100 µM; in [3] it was 0.476 µM; in test [4], over 84 µM; in test [5], over 100 µM; in [6] it was over 100 µM. For the same molecule, the GI50 is 0.0177 µM in [7], over 100 µM in test [8], over 100 µM in test [9] and over 100 µM in test [10]. Further, the TGI in test [1], in test [2], in test [3], in [4], in [5] and in test [6] was over 100 µM throughout. For the same molecule, the TGI in [7], in [8], in test [9] and in test [10] was over 100 µM each time.
